{
  "source": "patent US6376553B1",
  "about": "“Treatment of pain” (Knoll Pharmaceutical Company, priority 1999, dated 2002)",
  "molecular_target": "[3H]Noradenaline reuptake (Rattus norvegicus, UniProt Q9WTR4)",
  "sequence (Q9WTR4 1-597)": "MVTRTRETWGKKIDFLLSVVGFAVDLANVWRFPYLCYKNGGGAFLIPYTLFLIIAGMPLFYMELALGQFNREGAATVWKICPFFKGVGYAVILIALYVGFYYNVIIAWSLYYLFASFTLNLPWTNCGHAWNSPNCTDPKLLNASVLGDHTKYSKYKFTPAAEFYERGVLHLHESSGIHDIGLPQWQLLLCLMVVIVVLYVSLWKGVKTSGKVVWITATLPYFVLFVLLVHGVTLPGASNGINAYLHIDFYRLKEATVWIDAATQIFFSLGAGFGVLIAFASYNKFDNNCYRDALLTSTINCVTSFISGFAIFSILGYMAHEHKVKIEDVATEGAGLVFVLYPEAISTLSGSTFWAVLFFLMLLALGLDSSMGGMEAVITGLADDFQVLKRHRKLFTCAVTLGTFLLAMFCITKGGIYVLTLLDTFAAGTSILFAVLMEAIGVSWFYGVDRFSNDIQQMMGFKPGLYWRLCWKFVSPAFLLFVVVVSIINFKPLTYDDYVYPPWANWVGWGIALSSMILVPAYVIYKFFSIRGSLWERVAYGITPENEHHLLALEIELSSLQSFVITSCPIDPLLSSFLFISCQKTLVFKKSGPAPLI",
  "assay": "biochemical",
  "note": "pKi: −log10 of the molar value.",
  "data": [
    {"compound": "CC(NC(C)(C)C)C(=O)c1cccc(Cl)c1", "note": "(stereo not shown) [Bupropion]", "values": [
      {"measurement": "pKi", "result": 5.59}
    ]}
  ]
}
